Data: patent US9974775B2, “Substituted imidazoles as N-type calcium channel blockers” (Janssen Pharmaceutica NV, priority 2013, dated 2018)
pIC50: −log10 of the molar value. Where two headings read alike, the source gives them in different places.

Columns and labels:
[1] = tested on: mechanical allodynia after L5/L6 spinal nerve ligation; assay: Sciatic nerve ligation (SNL) model of neuropathic pain; type: in vivo; settings: rats; dose 50 mg/kg; response at Tmax
From the text: Left L5 and L6 spinal nerves are isolated adjacent to the vertebral column and were ligated with 5-0 silk suture distal to the dorsal root ganglion, as described by Kim and Chung (1992). The incision was closed with the help of GLUture topical tissue adhesive. At 14 days post-surgery (one day prior to test compound administration), mechanical allodynia was quantified using eight von Frey filaments, calibrated in the range 0.4-15.1 g (Nielsen et al 2005). Rats were placed into individual plastic containers on top of a suspended wire mesh grid and acclimated to the test chambers for at least 15 min. Filaments were applied perpendicular to the mid-plantar paw surface, with enough force to cause slight buckling, and held in place for 6-8 sec until a response was noted as a sharp paw withdrawal, flinching, licking and/or biting immediately upon removal of the filament (Nielsen et al 2005). […] Test compounds of Formula (I) were administered and a response was measured at Tmax. The maximum possible effect (% MPE) was determined to be 100% if the sensitivity in the ipsilateral paw neared that of the contralateral paw. Values from vehicle-treated animals were considered 0%. The compound effect was determined based on these values.

human N-type Ca channel [2] = target: T1, human N-type Ca channel (Homo sapiens, UniProt Q00975); assay: Calcium influx assay (FDSS); type: cell-based; parameters: host or cells: HEK 293; settings: HEK 293 cells, depolarized with 100 mM KCl
T1 sequence (Q00975 whole entry): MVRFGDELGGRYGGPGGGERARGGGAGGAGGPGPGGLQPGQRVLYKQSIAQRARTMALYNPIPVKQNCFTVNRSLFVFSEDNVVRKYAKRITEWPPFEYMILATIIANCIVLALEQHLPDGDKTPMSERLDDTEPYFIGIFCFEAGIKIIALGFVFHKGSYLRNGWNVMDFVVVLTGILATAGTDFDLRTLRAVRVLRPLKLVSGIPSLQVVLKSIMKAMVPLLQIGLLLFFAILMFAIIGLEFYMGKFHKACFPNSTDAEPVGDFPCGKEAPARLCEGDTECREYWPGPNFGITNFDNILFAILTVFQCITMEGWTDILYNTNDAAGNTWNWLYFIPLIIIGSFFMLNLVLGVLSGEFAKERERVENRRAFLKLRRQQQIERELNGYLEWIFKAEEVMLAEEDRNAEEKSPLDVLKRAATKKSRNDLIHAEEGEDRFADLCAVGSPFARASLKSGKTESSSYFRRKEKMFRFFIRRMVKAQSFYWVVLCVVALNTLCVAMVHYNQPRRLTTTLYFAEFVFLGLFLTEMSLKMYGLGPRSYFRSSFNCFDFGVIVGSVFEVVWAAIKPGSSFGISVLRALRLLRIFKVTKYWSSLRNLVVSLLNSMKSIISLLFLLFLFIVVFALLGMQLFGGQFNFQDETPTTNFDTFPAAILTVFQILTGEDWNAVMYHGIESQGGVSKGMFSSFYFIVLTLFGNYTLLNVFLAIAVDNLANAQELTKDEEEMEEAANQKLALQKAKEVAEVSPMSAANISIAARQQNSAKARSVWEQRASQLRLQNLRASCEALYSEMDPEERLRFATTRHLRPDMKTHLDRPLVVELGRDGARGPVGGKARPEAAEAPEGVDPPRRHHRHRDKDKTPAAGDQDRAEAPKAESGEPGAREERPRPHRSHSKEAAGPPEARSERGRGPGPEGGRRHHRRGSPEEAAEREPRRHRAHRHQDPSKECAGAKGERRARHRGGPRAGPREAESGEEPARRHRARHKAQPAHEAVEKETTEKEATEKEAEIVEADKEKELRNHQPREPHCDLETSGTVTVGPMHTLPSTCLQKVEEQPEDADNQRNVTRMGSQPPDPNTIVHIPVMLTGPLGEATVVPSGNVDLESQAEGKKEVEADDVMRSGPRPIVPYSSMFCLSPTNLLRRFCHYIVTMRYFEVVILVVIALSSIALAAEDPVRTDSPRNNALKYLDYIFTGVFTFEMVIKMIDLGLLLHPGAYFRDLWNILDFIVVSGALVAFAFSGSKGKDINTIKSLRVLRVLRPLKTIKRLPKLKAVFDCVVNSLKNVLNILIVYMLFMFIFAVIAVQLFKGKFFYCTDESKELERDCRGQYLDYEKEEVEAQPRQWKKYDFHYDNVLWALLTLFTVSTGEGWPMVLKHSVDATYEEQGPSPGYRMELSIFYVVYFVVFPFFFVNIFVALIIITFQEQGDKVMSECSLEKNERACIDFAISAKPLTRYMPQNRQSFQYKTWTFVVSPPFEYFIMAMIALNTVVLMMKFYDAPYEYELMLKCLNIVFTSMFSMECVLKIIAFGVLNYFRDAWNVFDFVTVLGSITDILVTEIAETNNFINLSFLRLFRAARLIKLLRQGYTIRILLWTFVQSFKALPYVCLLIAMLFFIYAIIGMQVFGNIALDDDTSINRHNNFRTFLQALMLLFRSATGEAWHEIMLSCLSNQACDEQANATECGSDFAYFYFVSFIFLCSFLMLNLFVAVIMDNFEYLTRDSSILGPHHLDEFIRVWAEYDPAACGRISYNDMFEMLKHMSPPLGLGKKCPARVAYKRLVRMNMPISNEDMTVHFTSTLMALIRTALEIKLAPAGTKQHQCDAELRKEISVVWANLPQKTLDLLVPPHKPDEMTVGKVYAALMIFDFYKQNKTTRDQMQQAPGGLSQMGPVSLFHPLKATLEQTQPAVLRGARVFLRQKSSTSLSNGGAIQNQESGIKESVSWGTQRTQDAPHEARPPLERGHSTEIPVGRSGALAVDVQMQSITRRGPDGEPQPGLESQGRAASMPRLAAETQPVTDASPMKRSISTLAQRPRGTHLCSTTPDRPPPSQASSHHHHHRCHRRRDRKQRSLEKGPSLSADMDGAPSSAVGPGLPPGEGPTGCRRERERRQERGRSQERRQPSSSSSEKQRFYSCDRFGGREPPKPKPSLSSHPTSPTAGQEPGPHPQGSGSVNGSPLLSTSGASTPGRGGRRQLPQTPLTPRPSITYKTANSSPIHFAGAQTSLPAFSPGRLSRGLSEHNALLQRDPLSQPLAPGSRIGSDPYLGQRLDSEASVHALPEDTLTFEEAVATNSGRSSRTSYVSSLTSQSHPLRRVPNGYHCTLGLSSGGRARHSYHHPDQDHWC
T1 sequence (P54284 whole entry partner): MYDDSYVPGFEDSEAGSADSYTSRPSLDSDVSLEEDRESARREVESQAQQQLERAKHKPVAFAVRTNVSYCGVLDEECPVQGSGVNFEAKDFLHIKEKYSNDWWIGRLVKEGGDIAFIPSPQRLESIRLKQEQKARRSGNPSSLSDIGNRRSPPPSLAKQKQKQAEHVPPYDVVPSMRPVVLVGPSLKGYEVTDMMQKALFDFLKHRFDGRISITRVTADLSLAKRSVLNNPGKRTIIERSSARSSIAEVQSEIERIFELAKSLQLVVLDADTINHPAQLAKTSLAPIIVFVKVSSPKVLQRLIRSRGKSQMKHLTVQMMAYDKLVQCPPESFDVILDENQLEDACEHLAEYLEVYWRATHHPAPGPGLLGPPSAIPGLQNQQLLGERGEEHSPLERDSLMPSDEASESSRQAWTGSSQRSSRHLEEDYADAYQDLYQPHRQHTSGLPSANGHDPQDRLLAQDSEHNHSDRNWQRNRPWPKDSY
T1 sequence (P54289 25-956 partner limits assumed): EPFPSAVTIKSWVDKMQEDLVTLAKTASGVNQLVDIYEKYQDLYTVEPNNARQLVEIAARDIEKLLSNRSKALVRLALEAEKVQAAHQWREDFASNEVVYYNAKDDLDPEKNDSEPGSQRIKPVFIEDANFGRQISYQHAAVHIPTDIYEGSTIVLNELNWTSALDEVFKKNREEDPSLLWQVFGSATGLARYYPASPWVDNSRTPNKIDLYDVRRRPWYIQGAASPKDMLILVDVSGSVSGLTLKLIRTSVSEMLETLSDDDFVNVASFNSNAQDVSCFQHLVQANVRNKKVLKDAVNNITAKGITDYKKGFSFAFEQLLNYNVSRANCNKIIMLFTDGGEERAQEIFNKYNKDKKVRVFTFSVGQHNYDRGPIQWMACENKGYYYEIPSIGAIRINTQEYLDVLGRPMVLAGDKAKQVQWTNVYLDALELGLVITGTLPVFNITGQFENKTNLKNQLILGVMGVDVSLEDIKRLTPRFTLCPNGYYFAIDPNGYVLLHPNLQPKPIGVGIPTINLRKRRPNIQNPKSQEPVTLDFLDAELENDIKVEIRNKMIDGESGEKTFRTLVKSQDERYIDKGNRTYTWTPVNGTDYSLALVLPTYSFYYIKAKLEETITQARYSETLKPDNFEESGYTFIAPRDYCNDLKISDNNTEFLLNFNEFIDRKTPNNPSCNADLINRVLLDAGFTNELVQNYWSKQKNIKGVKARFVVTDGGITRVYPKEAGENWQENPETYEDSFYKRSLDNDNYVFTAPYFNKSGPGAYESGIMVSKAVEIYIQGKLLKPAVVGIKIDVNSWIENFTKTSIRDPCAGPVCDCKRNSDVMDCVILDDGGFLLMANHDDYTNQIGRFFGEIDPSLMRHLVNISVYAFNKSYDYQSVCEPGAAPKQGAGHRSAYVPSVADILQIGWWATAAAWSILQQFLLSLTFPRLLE
T1 sequence (P54289 957-1103 partner limits assumed): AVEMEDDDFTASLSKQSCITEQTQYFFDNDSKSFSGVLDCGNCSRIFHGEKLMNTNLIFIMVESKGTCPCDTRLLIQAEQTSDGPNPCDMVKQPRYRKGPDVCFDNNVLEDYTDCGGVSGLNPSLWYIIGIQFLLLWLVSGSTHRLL
Experimental: All cell culture reagents were procured from HyClone and other reagents were from Fisher. Recombinant HEK 293 cells expressing human N-type Ca channel (Millipore) were maintained in DMEM F12 containing 10% FBS and selection antibiotics at 37° C. in 5% CO2.
Cells were incubated at 30° C. in 5% CO2 overnight. The medium was removed and cells were loaded with Fluo8 dye (AAT Bioquest) at 37° C. and 30° C., 30 min each in darkness. Cells were washed four times with wash buffer (16 mM Herep pH 7.2, 2 mM CaCl2, 1 mM MgCl2, 5 mM glucose, 140 mM choline chloride and 2 mM KCl) leaving 15 μL buffer after the last wash. Compounds of Formula (I), serially diluted, were added to the cell plate. The plates were incubated in darkness for 15 min. Cells were depolarized with 100 mM KCl and Ca influx was measured.

human N-type Ca channel [3] = target: T1, human N-type Ca channel; assay: Measurement of electrophysiological response (QPatch)
Experimental: The recombinant cell line described above was used in the measurement of electrophysiological properties with QPatch (Sophion). […] Prior to the experiment, the flasks were moved to 30° C. and incubated for 48-72 hrs. On the day of assaying, cells were detached and harvested. The cell pellet was re-suspended in SMF4HEK (HyClone)/25 mM HEPS at 2-5 million/mL and placed on the QStirrer of the QPatch for 30-60 min prior to the start of the assay. […] Microtiter-Plate/Reference Buffer contained 140 mM TEA-Cl, 10 mM BaCl2, 0.8 mM MgCl2, 10 mM HEPES pH˜7.4 adjusted with TEA-OH/HCl, and ˜300 mOsm. Cells were transferred to a QPatch 48 plate and gigaseal was formed. The plate was perfused with intracellular and extracellular buffer. […] In brief, cells were depolarized from resting potential of −80 mV to +20 mV and current was recorded. Data was plotted as percent inhibition vs concentration of the compound and IC50 values were generated using Graphpad Prism non-linear regression analysis.

[4] = read-out: Qpatch Pulse = 1 (percent inhibition)
[5] = concentration range 0.01-0.3 μM
[6] = N Type IC50 Data Qpatch Pulse = 1, Pulse = 1, concentration range 0.3-10 μM
[7] = N Type IC50 Data Qpatch Pulse = 15, Pulse = 15, concentration range 0.3-10 μM

Row | Structure (SMILES) | pIC50 (human N-type Ca channel [2]) | pIC50 (human N-type Ca channel [3]; [7]) | further results
1 | COc1ccccc1-c1nc(C2CC(C)(C)OC(C)(C)C2)cn1-c1ccc(C#N)cc1 [Cpd 1, 4-(2-(2-methoxyphenyl)-4-(2,2,6,6-tetramethyltetrahydro-2H-pyran-4-yl)-1H-imidazol-1-yl)benzonitrile] |  |  | SNL(% MPE) [1]: 64.07 ± 12.31%
2 | CC1(C)CC(c2cn(-c3ccc(C#N)cc3)c(C3CC3)n2)CC(C)(C)O1 [Cpd 57, 4-[2-Cyclopropyl-4-(2,2,6,6-tetramethyltetrahydro-2H-pyran-4-yl)-1H-imidazol-1-yl]benzonitrile] | ≤ 5.00 |  | 
3 | COc1ccccc1-c1nc(C2CC(C)(C)OC(C)(C)C2)cn1-c1ccc(F)c(C#N)c1 [Cpd 74, 2-Fluoro-5-[2-(2-methoxy-phenyl)-4-(2,2,6,6-tetramethyl-tetrahydro-pyran-4-yl)-imidazol-1-yl]-benzonitrile] | 6.31 |  | inhibition at 10 µM (human N-type Ca channel [3]; [4]): 36%; inhibition at 10 µM (human N-type Ca channel [3]; read-out: Qpatch Pulse = 15 (percent inhibition)): 44%
4 | COc1cc(-n2cc(C3CC(C)(C)OC(C)(C)C3)nc2-c2cccnc2OC)ccc1C#N [Cpd 77, 2-Methoxy-4-[2-(2-methoxypyridin-3-yl)-4-(2,2,6,6-tetramethyltetrahydro-2H-pyran-4-yl)-1H-imidazol-1-yl]benzonitrile] | ≤ 5.00 |  | 
5 | COc1nccnc1-c1nc(C2CC(C)(C)OC(C)(C)C2)cn1-c1ccc(C#N)c(F)c1 [Cpd 88, 2-fluoro-4-(2-(3-methoxypyrazin-2-yl)-4-(2,2,6,6-tetramethyltetrahydro-2H-pyran-4-yl)-1H-imidazol-1-yl)benzonitrile] |  |  | N Type IC50 Data Qpatch Pulse = 15 (human N-type Ca channel [3]; [5]): poor fit
6 | CCOc1ncccc1-c1nc(C2CC(C)(C)OC(C)(C)C2)cn1-c1ccc(C#N)c(F)c1 [Cpd 89, 4-(2-(2-ethoxypyridin-3-yl)-4-(2,2,6,6-tetramethyltetrahydro-2H-pyran-4-yl)-1H-imidazol-1-yl)-2-fluorobenzonitrile] |  |  | N Type IC50 Data Qpatch Pulse = 15 (human N-type Ca channel [3]; [5]): poor fit
7 | COc1ccccc1-c1nc(C2CC(C)(C)OC(C)(C)C2)c(C)n1-c1ccc(Cl)cc1 [Cpd 90, 1-(4-chlorophenyl)-2-(2-methoxyphenyl)-5-methyl-4-(2,2,6,6-tetramethyltetrahydro-2H-pyran-4-yl)-1H-imidazole] |  |  | N Type IC50 Data Qpatch Pulse = 1 (human N-type Ca channel [3]; Pulse = 1, concentration range 0.01-0.3 μM): poor fit; N Type IC50 Data Qpatch Pulse = 15 (human N-type Ca channel [3]; [5]): poor fit
8 | COc1ccccc1-c1nc(C2CC(C)(C)OC(C)(C)C2)cn1S(=O)(=O)C1CC1 [Cpd 95, 1-(Cyclopropylsulfonyl)-2-(2-methoxyphenyl)-4-(2,2,6,6-tetramethyltetrahydro-2H-pyran-4-yl)-1H-imidazole] | ≤ 5.00 |  | 
9 | COc1ccccc1-c1nc(C2CC(C)(C)OC(C)(C)C2)cn1S(=O)(=O)CC(C)C [Cpd 96, 2-(2-Methoxyphenyl)-1-[(2-methylpropyl)sulfonyl]-4-(2,2,6,6-tetramethyltetrahydro-2H-pyran-4-yl)-1H-imidazole] |  |  | pIC50 (human N-type Ca channel [3]): ≤ 5.00
10 | COc1ccccc1-c1nc(C2CC(C)(C)OC(C)(C)C2)cn1Cc1cncnc1 [Cpd 100, 5-{[2-(2-Methoxyphenyl)-4-(2,2,6,6-tetramethyltetrahydro-2H-pyran-4-yl)-1H-imidazol-1-yl]methyl}pyrimidine] | ≤ 5.00 | ≤ 5.00 | pIC50 (human N-type Ca channel [3]; [6]): ≤ 5.00
11 | COc1ccccc1-c1nc(C2(O)CC(C)(C)OC(C)(C)C2)cn1-c1ccc(F)c(Br)c1 [Cpd 106, 4-[1-(3-Bromo-4-fluorophenyl)-2-(2-methoxyphenyl)-1H-imidazol-4-yl]-2,2,6,6-tetramethyltetrahydro-2H-pyran-4-ol] | 6.83 | 5.30 | inhibition at 10 µM (human N-type Ca channel [3]; [4]): 71%
12 | COc1ncccc1-c1nc(C2(O)CC(C)(C)OC(C)(C)C2)cn1-c1ccc(F)c(C#N)c1 [Cpd 116, 2-Fluoro-5-[4-(4-hydroxy-2,2,6,6-tetramethyltetrahydro-2H-pyran-4-yl)-2-(2-methoxypyridin-3-yl)-1H-imidazol-1-yl]benzonitrile] | 5.86 |  | pIC50 (human N-type Ca channel [3]; N Type IC50 Data Qpatch Pulse = 1, Pulse = 1, concentration range 0.01-1 μM): < 6.00; pIC50 (human N-type Ca channel [3]; N Type IC50 Data Qpatch Pulse = 15, Pulse = 15, concentration range 0.01-1 μM): < 6.00
13 | COc1ccccc1-c1nc(C2(O)CC(C)(C)OC(C)(C)C2)cn1-c1ccc(C#N)c(F)c1 [Cpd 118, 2-Fluoro-4-[4-(4-hydroxy-2,2,6,6-tetramethyltetrahydro-2H-pyran-4-yl)-2-(2-methoxyphenyl)-1H-imidazol-1-yl]benzonitrile] |  | ≤ 5.00 | 
14 | COc1ccccc1-c1nc(C2CC(C)(C)OC(C)(C)C2)cn1-c1ccc(C#N)c(C(F)(F)F)c1 [Cpd 121, 4-[2-(2-Methoxyphenyl)-4-(2,2,6,6-tetramethyltetrahydro-2H-pyran-4-yl)-1H-imidazol-1-yl]-2-(trifluoromethyl)benzonitrile] | 6.63 | 5.48 | pIC50 (human N-type Ca channel [3]; [6]): 5.18
15 | COc1ccccc1-c1nc(C2=CC(C)(C)OC(C)(C)C2)cn1-c1ccc(C#N)c(F)c1 [Cpd 126, 2-Fluoro-4-[2-(2-methoxyphenyl)-4-(2,2,6,6-tetramethyl-3,6-dihydro-2H-pyran-4-yl)-1H-imidazol-1-yl]benzonitrile] | 6.63 | 5.72 | 
